Values of other authors in publication PMC9576820 (The Journal of membrane biology, 2022).

System: host cells, proteases, serum proteins

Sequence: RRGWALRLVLAY [ARVA]
- inhibition of antimicrobial activity by host factors: potently inhibited by host cell binding, proteolysis, and serum protein binding
